Assay results taken from patent publication US6548543B1, “Remedies or preventives containing cyclopentenone compounds as the active ingredient” (Takara Shuzo Co., Ltd., priority 1998, dated 2003).

Assays:
HSP70 = settings: cited from earlier work
[1] = Single oral dose toxicity; type: in vivo; settings: mouse, oral, single dosage of 100 mg/kg
Experimental: No toxicity is observed when a physiologically effective amount of the cyclopentenone derivative or an optical isomer thereof, or a salt thereof obtained according to the present invention is administered.

[2] = system: λ-carrageenan pedal edema; test: Carrageenan induced pedal edema; type: in vivo, Lewis rats; settings: rat, 3 hours after carrageenan
Experimental: Lewis rats (male, 9 weeks old, weighing about 250 g) were purchased from Seac Yoshitomi.
Rats were fasted from 18 hours before the start of the experiments. Dipropionylcyclopentenone, dihexanoylcyclopentenone, di-2-hexenoylcyclopentenone, diisobutyrylcyclopentenone or dibenzoylcyclopentenone dissolved in olive oil (Nacalai Tesque) was orally administered to 4 rats per group at 1 or 10 mg/10 ml/kg.
100 μl of 1% λ-carrageenan (Wako Pure Chemical Industries) suspension in saline (Otsuka Pharmaceutical) was injected into the sole of right paw of a rat 0.5 hour after the administration of test substance to induce pedal edema. The volume of the right foot of the rat was measured using an instrument for measuring pedal volume (Ugo Basile) 3 hours after the injection with carrageenan. The measurements were expressed as the rate of increase calculated based on the volume of the right foot of each rat measured before the administration with carrageenan.
FIG. 5 illustrate the relationship between the amount of cyclopentenone derivative administered and the rate of increase in edema in foot. The horizontal axis represents the dose […] and the vertical axis represents the rate of increase (%).

topoisomerase I = target: T1, topoisomerase I (Homo sapiens, UniProt P11387); test: Topoisomerase I inhibition, pBR322 DNA relaxation; type: biochemical; settings: 37° C., 30 minutes
T1 construct: purchased TopoGEN
T1 sequence (P11387 1-765): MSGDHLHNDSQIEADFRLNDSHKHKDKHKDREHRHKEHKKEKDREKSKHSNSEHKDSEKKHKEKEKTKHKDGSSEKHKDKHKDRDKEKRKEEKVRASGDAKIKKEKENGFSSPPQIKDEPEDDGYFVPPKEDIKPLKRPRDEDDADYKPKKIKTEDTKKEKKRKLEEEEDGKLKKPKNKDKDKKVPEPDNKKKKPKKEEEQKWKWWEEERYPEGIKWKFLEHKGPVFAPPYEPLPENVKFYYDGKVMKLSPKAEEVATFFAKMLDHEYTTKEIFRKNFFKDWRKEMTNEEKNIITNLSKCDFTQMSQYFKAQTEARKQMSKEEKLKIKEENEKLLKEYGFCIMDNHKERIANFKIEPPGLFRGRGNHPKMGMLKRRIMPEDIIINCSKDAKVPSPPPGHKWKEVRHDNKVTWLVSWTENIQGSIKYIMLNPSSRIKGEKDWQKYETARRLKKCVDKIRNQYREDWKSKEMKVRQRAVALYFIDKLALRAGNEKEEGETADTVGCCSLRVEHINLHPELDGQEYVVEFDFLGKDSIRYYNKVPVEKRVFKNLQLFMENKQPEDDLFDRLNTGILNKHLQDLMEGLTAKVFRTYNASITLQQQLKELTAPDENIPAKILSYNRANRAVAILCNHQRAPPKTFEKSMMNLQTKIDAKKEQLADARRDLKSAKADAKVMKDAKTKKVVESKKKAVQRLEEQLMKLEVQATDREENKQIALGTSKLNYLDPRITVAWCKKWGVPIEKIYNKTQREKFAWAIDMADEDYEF
Experimental: (1) 2 μl of topoisomerase II (TopoGEN; 2 units/μl), 2 μl of 10-fold concentrated buffer [0.5 M Tris-HCl (pH 8.0), 1.2 M KCl, 0.1 M MgCl2, 2.5 mM adenosine triphosphate, 5 mM dithiothreitol], 2 μl of 0.1% bovine serum albumin (Takara Shuzo), 11 μl of distilled water and 2 μl of distilled water (control) or 2 μl of one of aqueous solutions of dipropionylcyclopentenone, diisobutyrylcyclopentenone, dibenzoylcyclopentenone, dihexanoylcyclopentenone, di-2-hexenoylcyclopentenone, dimethoxyacetylcyclopentenone, dimethylfumarylcyclopentenone or dimethylmaleylcyclopentenone at varying concentrations were mixed together. 1 μl of 0.25 μg/μl pBR322 DNA (Takara Shuzo) was added thereto. The resulting mixture was reacted at 37° C. After reacting for 30 minutes, 2 μl of an aqueous solution containing 1% sodium dodecyl sulfate, 50% glycerol and 0.02% Bromophenol Blue was added thereto to stop the reaction. […]
(2) The activity of inhibiting topoisomerase I of each of the cyclopentenone derivatives was determined as described in Example 3-(1) except that topoisomerase I (TopoGEN; 0.01 unit/μl) was used in place of topoisomerase II and a solution containing 100 mM Tris-HCl (pH 7.9), 10 mM EDTA, 1 mM spermidine and 50% glycerol was used as 10-fold concentrated buffer.

| SMILES | Concentration required for inducing HSP70 (HSP70) | Death after single oral administration [1] | Suppression of edema in foot (FIG. 5) ([2]; 1 mg/kg oral) | Suppression of edema in foot (FIG. 5) ([2]; 10 mg/kg oral) | Concentration at which change of DNA from superhelical type to relaxed type was partially or completely inhibited (topoisomerase I) |
| --- | --- | --- | --- | --- | --- |
| O=C1C=CCC1 [2-cyclopenten-1-one] | several hundred | – | – | – | – |
| O=C(OC1C=CC(=O)C1OC(=O)c1ccccc1)c1ccccc1 (centres unmarked) | – | no death was observed | Tendency of suppression | significant suppression | ≥ 50 µM |
